Experimental data reported in US20080132500A1, “Antibiotic compounds” (priority 2006, published 2008).
Converted amounts (≈) assume the structure as drawn. Like-named read-outs stand apart in the source and are kept apart here.

How the values were obtained:
Test in all cases: Microbroth dilution MIC
Assay type in all cases: cell-based
[1] = system: Staphylococcus Aureus CL 8260; details: Staphylococcus Aureus strain CL 8260
Method: (§1) Cation-Adjusted Mueller Hinton Broth (BBL): Prepared according to manufacturer's instructions (22 gms dissolved in 1000 mL water; autoclaved 22 minutes). Stored refrigerated. Filter-sterilized before use using a Coming 0.45 Tm cellulose acetate filter.
(§2) The type of strains listed above can be obtained from publicly available sources. The strain of Haemophilus influenzae used in to assay the compound of this invention is a mouse pathogen used for in vivo testing at Merck. The Escherichia coli strain used in to assay the compound of this invention is a cell wall permeable strain. The Candida albicans strain is used as a control. These culture are maintained as frozen stocks at −80° C. in a) Microbank beads; b) 2× Skim Milk; or c) in 2× X Trypticase Soy Broth+15% glycerol/50% horse serum (Haemophilus and Streptococcus pneumoniae).
(§3) Selected isolates are sub-cultured onto either Chocolate Agar Plates (Haemophilus influenzae), onto Trypticase Soy+5% Sheep Blood Agar Plates (Streptococcus pneumoniae, Staphylococcus aureus, Escherichia coli, Enterococcus, Bacillus) or onto Sabouraud Dextrose Agar (Candida) and incubated at 35° C. Haemophilus and Streptococcus pneumoniae are incubated in 5% CO2; all other isolates are incubated in ambient air. Isolates are sub-cultured 2× before assay.
(§4) Colonies are selected from plates and used to prepare an inoculum equivalent to a 0.5 McFarland standard in Trypticase Soy Broth. An inoculum with a density equivalent to a 1.0 McFarland standard is prepared for Streptococcus pneumoniae. The inoculum density for all cultures is ˜10^8 CFU/mL in TSB. This TSB inoculum is diluted 1:10 in sterile saline (4 mL inoculum+36 mL saline; equivalent to ˜10^7 CFU/mL) and kept on ice until used to inoculate microtiter plates.
(§5) All wells of 96-well microtiter plates (Dynex) are filled with 100 TL media. Haemophilus test media plates are prepared to test Haemophilus influenzae; Cation-Adjusted Mueller Hinton+5% Lysed Horse Blood plates are prepared to test Streptococcus pneumoniae; Cation-Adjusted Mueller Hinton Broth plates are prepared to test Enterococcus, Staphylococcus aureus, Escherichia coli and Bacillus subtilis. RPMI 1640 is used to test Candida. The MICs against S. aureus Smith are determined in Cation-adjusted Mueller Hinton and in Cation-Adjusted Mueller Hinton+50% Human Serum, to determine if the compound is inactivated by some component in serum (indicated by an increase in the MIC). Filled plates are wrapped in plastic bags (to minimize evaporation), stored frozen and thawed before use.
(§6) The compounds are prepared on a weight basis. Compounds are prepared to 2-10 mg/mL in 100% DMSO, then diluted to 1 mg/mL in a 1:1 dilution of DMSO/233 CAMHB (final concentration=50% DMSO/50% CAMHB). Compounds are serially diluted 1:1 in 50% DMSO/50% CAMHB in BD Biosciences Deep Well Polypropylene 96 well plates (starting concentration 1-5 mg/mL).
(§7) Using a Finn Automated Multichannel Pipette, (0.5-10 μL volume) 6.4 TLs of antimicrobial working solutions are added to wells of filled microtiter plates (concentration of antimicrobial in first well=512-64 microg/mL; concentration of DMSO=3.2%). Antimicrobials are added in this manner to keep constant the amount of DMSO in each well (to keep compounds solubilized and to account for the possibility of non-specific killing by the DMSO. The last row contains a growth control of 3.2% DMSO.
(§8) Controls (Penicillin G and chloramphenicol) are run with each assay. The controls are prepared in the same manner as described for the compounds of the invention. Ertapenem is included as a control for the serum protein binding assay.
(§9) Plates are incubated at 35° C. in ambient air. An uninoculated plate is also incubated as a sterility check. Results are recorded after 22-24-hours' incubation. Plates were read to no growth.

[2] = system: Staphylococcus Aureus CL 5814; details: Staphylococcus Aureus strain CL 5814
Method: as §1, §2, §3, §4, §5, §6, §7, §8, §9

[3] = system: Enterococcus Faecalia CLB 21560
Method: as §1, §2, §3, §4, §5, §6, §7, §8, §9

[4] = system: Staphylococcus Aureus MB 2865; details: Staphylococcus Aureus strain MB 2865
Method: as §1, §2, §3, §4, §5, §6, §7, §8, §9

| MIC ([3]; Enterococcus Faecalia strain CLB 21560, read-out: MIC) | SMILES | MIC [1] | MIC [2] | MIC ([3]; Enterococcus) | MIC [4] |
| --- | --- | --- | --- | --- | --- |
| – | CO/C(C)=C1/NC(=O)[C@H]([C@@H](C)O)NC(=O)c2csc(n2)-c2cc(O)c(-c3nc(CNC(=O)CN4CCOCC4)cs3)nc2-c2csc(n2)[C@@H]2COC(=O)c3c4c5c(cccc5n3O)COC(=O)[C@@H](O[C@H]3C[C@](C)(O)[C@H](N(C)C)[C@H](C)O3)[C@@H](OC4)[C@H](NC(=O)c3csc1n3)c1nc(cs1)C(=O)N2 [Compound A] | 0.015 mg/L (≈ 0.0101 µM) | 0.0038 mg/L (≈ 0.00256 µM) | 0.015 mg/L (≈ 0.0101 µM) | 0.0075 mg/L (≈ 0.00506 µM) |
| 0.06 mg/L (≈ 0.0429 µM) | CO/C(C)=C1/NC(=O)[C@H]([C@@H](C)O)NC(=O)c2csc(n2)-c2cc(O)c(-c3nc(CNCCO)cs3)nc2-c2csc(n2)[C@@H]2COC(=O)c3c4c5c(cccc5n3O)COC(=O)[C@@H](O[C@H]3C[C@](C)(O)[C@H](N(C)C)[C@H](C)O3)[C@@H](OC4)[C@H](NC(=O)c3csc1n3)c1nc(cs1)C(=O)N2 [Compound B] | 0.03 mg/L (≈ 0.0215 µM) | 0.0075 mg/L (≈ 0.00536 µM) | – | 0.03 mg/L (≈ 0.0215 µM) |
